The results in this text go back to US20100216249A1, “DNA-Based Biosensors” (ISIS INNOVATION LIMITED, priority 2007, published 2010).

By Kd is commonly meant the free concentration of one partner at which half of the binding sites on the other are occupied at equilibrium, for simple one-to-one binding.

One test has as its target lac repressor (lacR) (Escherichia coli, UniProt P03023). Briefly: Sensing a lactose analog (IPTG) using DNA biosensors: IPTG-dependent loss of lacR-assembled full DNA site, detected by single-molecule fluorescence (protein-dependent DNA coincidence). Format: binding, bacteria. The note with it: FIG. 16; IPTG interaction with lacR (tetrameric bacterial repressor); fraction of bursts with intermediate stoichiometry vs IPTG concentration. The text has this: For the purposes of our assay, the fluorophores can be placed far from the protein binding site (as long as the fluorophores are spaced by less than approximately 200 base pairs); as such, there is no perturbation of protein-DNA binding and no information about the exact structure of the protein-DNA complex is necessary. The concept is described in FIG. 3. In the absence of a DNA-binding protein, for example, a dimeric protein, such as a dimeric transcription factor, two DNA fragments with short and complementary single-stranded DNA tails diffuse independently in solution (top panel). In the presence of a DNA-binding protein that binds specifically to the fully assembled DNA site, the two DNA fragments diffuse as a single molecular complex (a 1:1 donor-acceptor species); such a species can be easily differentiated from the free DNA half-sites and can be counted, giving information about the concentration of the specific DNA-binding protein. […]
An example of sensing the concentration of a small molecule using protein-dependent DNA coincidence. In the absence (or low concentration) of the molecule to be sensed (yellow triangle), the transcription factor binds to DNA with high affinity and gives rise to DNA coincidence detected by single-molecule fluorescence. […]

The next test addresses lacR (Escherichia coli, UniProt P03023). Kind of test: sensing a lactose analog (IPTG) using DNA biosensors (lacR-dependent DNA coincidence). Format: binding, bacteria. The text has this: An example of sensing the concentration of a small molecule using protein-dependent DNA coincidence. In the absence (or low concentration) of the molecule to be sensed (yellow triangle), the transcription factor binds to DNA with high affinity and gives rise to DNA coincidence detected by single-molecule fluorescence.
FIG. 16. Sensing a lactose analog (IPTG) using DNA biosensors. […] A plot of the number of molecules with intermediate stoichiometry can be used as a calibration curve to identify the concentration of the small molecule, provided that the concentration is not much higher or much lower than the Kd for the interaction of the small molecule with the DNA-binding protein.

SMILES strings stand for the structures.

lacR, sequence (P03023 whole entry): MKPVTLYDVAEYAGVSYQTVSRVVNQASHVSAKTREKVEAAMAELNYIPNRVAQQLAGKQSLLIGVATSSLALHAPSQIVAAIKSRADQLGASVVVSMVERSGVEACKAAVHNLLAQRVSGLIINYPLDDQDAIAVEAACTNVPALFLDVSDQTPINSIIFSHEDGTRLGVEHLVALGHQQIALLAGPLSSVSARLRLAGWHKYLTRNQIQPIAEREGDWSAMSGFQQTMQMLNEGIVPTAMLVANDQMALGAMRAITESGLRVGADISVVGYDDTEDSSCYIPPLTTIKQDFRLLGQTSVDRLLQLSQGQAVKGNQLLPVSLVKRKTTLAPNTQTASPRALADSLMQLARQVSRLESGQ
lac repressor (lacR), sequence (P03023 whole entry): as above

In the case of `CC(C)S[C@@H]1O[C@H](CO)[C@H](O)[C@H](O)[C@H]1O` [IPTG], on lac repressor (lacR), the equilibrium dissociation constant (Kd) fell in the range of 1000 to 2000 nM. For the same compound, the “lacR assembly of the full DNA site” value on lacR (high concentration of IPTG, relative fraction of bursts with intermediate stoichiometry decreases) was “does not assemble the full site”; at lacR (low concentration of IPTG, relative fraction of bursts with intermediate stoichiometry increases) it was “does bind and assemble the full site”.
